We go through four compounds from publication PMC2732577 (Biochemistry, 2008).

Entries after “also recorded” stand apart in the source; their conditions may differ. Ends that are not written are not given here.

Assay type in all cases: biochemical
The target in assay [1] is T1, Pf-Sir2 (Plasmodium falciparum, UniProt Q8IE47).
T1 sequence (Q8IE47 1-273): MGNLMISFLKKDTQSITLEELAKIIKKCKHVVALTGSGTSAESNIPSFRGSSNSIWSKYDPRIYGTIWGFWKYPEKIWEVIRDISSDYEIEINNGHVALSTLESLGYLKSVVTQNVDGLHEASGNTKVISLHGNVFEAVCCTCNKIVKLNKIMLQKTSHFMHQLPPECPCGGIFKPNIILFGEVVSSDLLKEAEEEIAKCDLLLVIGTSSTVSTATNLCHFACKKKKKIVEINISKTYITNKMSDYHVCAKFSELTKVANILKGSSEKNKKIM

The target of assay [2] is T1, Pf-Sir2. The source holds these as a separate data set.
For assay [3], the target named is T1, Pf-Sir2. The source holds these as a separate data set.
In assay [4] the target is T1, Pf-Sir2. The experiment in a line: Thionicotinamide base-exchange assay. The following applies: similar reaction conditions, H3 substrate.
Assay [5] concerns the target T1, Pf-Sir2. The experiment in a line: Decomposition of AADPR in presence of Pf-Sir2. The following applies: data not shown.

A word on the Km: it is the concentration of substrate that gives half-maximal velocity. Consider `NC(=O)c1ccc[n+]([C@@H]2O[C@H](COP(=O)([O-])OP(=O)(O)OC[C@H]3O[C@@H](n4cnc5c(N)ncnc54)[C@H](O)[C@@H]3O)[C@@H](O)[C@H]2O)c1` [NAD^+, nicotinamide adenine dinucleotide oxidized form], for which the “rate of peptide-independent solvolysis vs deacetylation” value at Pf-Sir2 [1] is listed as “exceeds the deacetylation rate for H3”. Further, on Pf-Sir2 [1] (pH 7.3), the “kcat, NAD^+ hydrolysis, no peptide” value is 1.2 ± 0.2 10^−3 s^−1. In addition, the Michaelis-Menten constant (Km) on Pf-Sir2 [2] (read-out: Km for NAD^+ in H3 deacetylation) was determined as 120 µM. Besides, the “stereochemistry of Pf-Sir2 methanolysis product” value on Pf-Sir2 [3] is reported as “inverted stereochemistry; also recorded: only α-1-O-methyl-ADPR as a product (no β)”. Moreover, at Pf-Sir2 [3] (pH 8.5), the “k0 (α-MeO-ADPR)” value is 0.00027 s⁻¹; the “ksolvolysis (combined ADPR and 1-O-methyl-ADPR)” value is 0.00138 s⁻¹.
Turning to `NC(=S)c1cccnc1` [thionicotinamide], at Pf-Sir2 [4], the “base-exchange Km, times higher than nicotinamide” value is recorded as 8 times and the “base-exchange, times slower than nicotinamide” value is reported as “approximately 4 times”.
In the case of “O-acetyl-adenosine diphosphoribose [AADPR]”, the “decomposition of AADPR on adding Pf-Sir2 to SIRT1 reaction mixture” value at Pf-Sir2 [5] is recorded as “not decomposed”. Besides, on Pf-Sir2 [5] (relative to a control), the “decomposition of purified AADPR in presence of Pf-Sir2” value was “not decomposed faster relative to a control”.
For the compound “p300: human di-acetylated p300 sequence corresponding to amino acid positions 1034–1053 (ATQSSPAPGQSKKKIFKPEE; also: di-acetylated, places not given here; UniProt Q09472 1034-1053, looked up, fragment)”, in the assay with Pf-Sir2 [1], the “stimulation of NAD^+ hydrolysis by peptide” value is given as “best hydrolysis stimulating substrate”. In addition, in the assay with Pf-Sir2 [2], the deacetylation co-product is 2′- and 3′- O-acetyl-ADP-ribose (AADPR).
